Non-standard residues stand in square brackets, D forms with d. Residues, ends and D or L forms follow the SMILES beside them. No end group written: not given here.
Legend:
human red blood cells = test: Hemolytic activity, hemoglobin release from red blood cells (12 hour protocol)
Experimental: Determination of hemolytic activity is measured through the release of hemoglobin from human red blood cells as measured spectrophotometrically.
Briefly, a dilution series of the peptide was prepared in two-fold dilutions from 512 to 1 μg/mL. Triplicate determinations of each peptide concentration were added to 1% human red blood cells and incubated for 12 hours at 37° C. The negative control for hemolysis consisted of 1% red blood cells with no peptide added. The positive control for hemolysis was 1% red blood cells in 0.15M NH4Cl. Hemoglobin release was measured at an absorbance of 562 nm.
Percent hemolysis is calculated as the ratio of the optical density (OD) of the peptide relative to the OD of the positive control for hemolysis.

[1] = Surface plasmon resonance (Biacore T-100) binding of peptides to immobilized biotin-labeled hyaluronic acid; design: species or system rooster; conditions: SPR, biotin-HA immobilized on streptavidin chip
Experimental: Surface plasmon resonance spectroscopy (SPR) studies were performed on a Biacore T-100 to quantitate the binding of peptides to hyaluronic acid (HA). Biotin-labeled hyaluronic acid (Sigma B1557, hyaluron sodium salt from rooster comb with >97% purity, average approximately 850 kDd, 98% labeled) was immobilized on one of the four flow cells of a streptavidin-coated series S sensor chip SA. […] Peptides were then injected across the surface and the degree of binding interaction is measured in response units (RU).
The average net binding for HABP35 to HA was 399±77 RU or significant binding. The other HA binding peptides also had positive RU values.

GAS = test: Bacterial translocation through polarized keratinocyte cultures (Transwell); type: cell-based, Group A Streptococcus; conditions: two hours after addition of GAS; vs PBS or SCRM
Experimental: Cell cultures: For the preparation of in vitro keratinocyte cultures, human primary OKP7 cells were derived from the oropharynx. Keratinocytes were seeded at 5×10^5 cells per well onto polycarbonate Transwell membrane supports (12 well plates, 3.0 μm pore size; Costar) or tissue culture treated plastic ware and cultured for 5-10 days at 37° C. with 5% humidified CO2 in cSFM medium with daily medium changes. Once confluent, the calcium concentration of the cSFM was increased to 1.2 mM and cells were cultured for 2 more days, before the integrity of the monolayer was assessed by measuring permeability to sodium fluorescein, and in some experiments, by measuring transepithelial electrical resistance.
Infection procedures: Keratinocyte layer cultures in Transwell inserts were inoculated in the upper chamber with GAS, S. equi, S. uberis, and P. multocida at a multiplicity of infection (MOI) of 1 bacterium per keratinocyte in the presence or absence of HABP01 or SCRM. Infected cultures were incubated at 37° C. with 5% CO2 for the desired time. In translocation experiments, Transwell inserts containing the keratinocytes were moved to new wells containing fresh medium every 2 hours to prevent overgrowth of bacteria that had translocated through the keratinocytes layer to the lower chamber. Bacterial translocation was quantified by culturing medium from the lower chamber at 2-hour intervals.
Bacterial translocation studies were performed to assess the impact of HABP01 on bacterial paracellular translocation through polarized keratinocyte cultures.
Incubation of GAS in the presence of HABP33, HABP35 and HABP42, also delayed GAS translocation. At two hours after the addition of GAS to the keratinocytes, approximately 530 CFU of GAS were detected in the lower level in cultures treated with PBS or SCRM peptide.

S. aureus strain PS80 = test: Mouse model of S. aureus surgical wound infection; type: in vivo, C57BL6 mice; conditions: 100 μg into wound at time of challenge with 10^2 CFU; 3 days later
Experimental: Bacterial strains. S. aureus strain PS80 (serotype 8) was obtained from the American Type Culture collection (#27700) and is a potent inducer of intraabdominal abscess formation. S. aureus COL is a methicillin resistant strain that produces a serotype 5 capsule. Staphylococci were cultivated for 24 h at 37° C. on Columbia agar (Difco Laboratories, Detroit, Mich.) supplemented with 2% NaCl.
Mouse model of S. aureus wound infection. Mice (C57BL6, male, 6-8 wk old) were obtained from Jackson Laboratories (Bar Harbor, Me.). Groups of mice (N=4/group/experiment) were anesthetized with 100 mg/kg ketamine and 10 mg/kg xylazine, their right thighs were shaved, and the surgical area was disinfected with iodine and 70% ethanol. An incision was made in the skin to expose the thigh muscle, and a 1-cm incision was made with a scalpel into the thigh muscle to the depth of the bone. The muscle was then closed with one 4-0 silk suture, and 10 μl of a S. aureus suspension ranging in dose from 10^2 to 10^4 CFU was introduced into the incision under the suture. The skin was closed with four additional Prolene sutures. The mice were euthanized at 3 days post-surgery. The wounded muscle tissue was excised, weighed (˜0.08 g), and homogenized in 1 ml of tryptic soy broth. Serial dilutions of the homogenates were plated in duplicate and results were expressed as CFU/g tissue. Peptides were administered to animals in two ways. For most experiments, HABPs were solubilized in PBS and administered with a pipet into the wound in a 10 μl volume following challenge with bacteria. A 100 μg dose was used for most experiments. For therapeutic studies, peptide was administered via a 1 ml tuberculin syringe fitted with a 25 gauge needle in a 0.25 ml volume injected into the thigh muscle containing the wound distal from the incision site.
Gross pathology and histologic analysis of host response. […] Histological examination of these wounds confirmed these findings. Muscle tissue was harvested from mice at designated intervals post-surgery, fixed in 10% buffered formalin, and mounted in paraffin; 5 to 6-μm sections were cut and stained with hematoxylin and eosin for microscopic examination. […] The cellular infiltrate was primarily comprised of PMNs and fibrin.
Statistical analyses. All animal experiments were performed at least two times and the data pooled. Comparison of S. aureus CFU/g tissue was made by the Welch modification of the unpaired Student t test (InStat, GraphPad Software, San Diego, Calif.).

## CC[C@H](C)[C@H](NC(=O)[C@H](CCCCN)NC(=O)[C@H](CCC(N)=O)NC(=O)[C@H](CCCCN)NC(=O)[C@@H](N)CC(C)C)C(=O)N[C@@H](CCCCN)C(=O)N[C@@H](Cc1c[nH]cn1)C(=O)N[C@H](C(=O)N[C@H](C(=O)N[C@@H](CCCCN)C(=O)N[C@@H](CC(C)C)C(=O)N[C@@H](CCCCN)C(=O)N[C@H](C(=O)N[C@H](C(=O)N[C@H](C(=O)N[C@@H](CCCCN)C(=O)N[C@@H](CC(C)C)C(=O)N[C@@H](CCCNC(=N)N)C(=O)N[C@@H](CO)C(=O)N[C@@H](CCC(N)=O)C(=O)N[C@@H](CC(C)C)C(=O)N[C@H](C(=O)N[C@@H](CCCCN)C(=O)N[C@@H](CCCNC(=N)N)C(=O)N[C@@H](CCCCN)C(=O)N[C@@H](CCC(N)=O)C(=O)N[C@@H](CC(N)=O)C(N)=O)C(C)C)C(C)C)C(C)C)C(C)C)C(C)C)C(C)C [HABP35] (H-LKQKIKHVVKLKVVVKLRSQLVKRKQN-NH2)
Human red blood cells; highest concentration tested, 512 μg/mL, 1% human red blood cells, 12 hours, 37° C.
  hemolytic activity: minor hemolytic activity

## CC[C@H](C)[C@H](NC(=O)CN)C(=O)NCC(=O)N[C@@H](C)C(=O)N[C@H](C(=O)N[C@@H](CC(C)C)C(=O)N[C@@H](CCCCN)C(=O)N[C@H](C(=O)N[C@@H](CC(C)C)C(=O)N[C@H](C(=O)N[C@H](C(=O)NCC(=O)N[C@@H](CC(C)C)C(=O)N1CCC[C@H]1C(=O)N[C@@H](C)C(=O)N[C@@H](CC(C)C)C(=O)N[C@H](C(=O)N[C@@H](CO)C(=O)N[C@@H](Cc1c[nH]c2ccccc12)C(=O)N[C@H](C(=O)N[C@@H](CCCCN)C(=O)N[C@@H](CCCNC(=N)N)C(=O)N[C@@H](CCCCN)C(=O)N[C@@H](CCCNC(=N)N)C(=O)N[C@@H](CCC(N)=O)C(=O)N[C@@H](CCC(N)=O)C(N)=O)[C@@H](C)CC)[C@@H](C)CC)[C@@H](C)O)[C@@H](C)O)C(C)C)C(C)C [Melittin]
Human red blood cells; 1% human red blood cells, 12 hours
  concentration giving levels of hemolysis comparable to HABP35 at 512 μg/mL: less than 1 μg/mL
Human red blood cells; comparison with HABP35
  potency as a hemolytic agent relative to HABP35: more than 500 times
[1]
  average net binding to HA: −503±5 RU

## VSKLRSQLVKRKQN (VSKLRSQLVKRKQN-NH2) [HABP33]
GAS
  decrease in the numbers of translocating GAS bacteria: ~90%

## STMMSRSHKTRSHHV (all d isomers) ([dS][dT][dM][dM][dS][dR][dS][dH][dK][dT][dR][dS][dH][dH][dV]-NH2) [HABP42]
S. aureus strain PS80
  bacterial burden at the wound site compared with PBS: decrease in bacterial burden

Reference: US8044022B2, “Hyaluronic acid binding peptides enhance host defense against pathogenic bacteria” (priority 2005, dated 2011)
